Measurements published in US8686115B2, “Compositions and methods for quantitatively monitoring lipids” (The Board of Trustees of the University of Illinois, priority 2009, dated 2014).
Substitutions are numbered along the chain they refer to. pKd: −log10 of the molar value.

How the values were obtained:
[1] = target: T1, DAN-eENTH (epsin 1 ENTH domain variant M10C/C96A/S4W, SEQ ID NO: 2, DAN labeled) mutant L6A/R7A/R8A (Homo sapiens, UniProt Q9Y6I3, C96A/L6A/M10C/R7A/R8A/S4W); test: SPR binding of DAN-eENTH-L6A/R7A/R8A to phosphoinositide-containing LUVs; conditions: see Table 1
T1 construct: The Epsin1 ENTH domain (1-158 amino acids) was subcloned; GST (C, cleaved yes); made in house; host or cells: E. coli BL21 RIL codon plus
T1 sequence (Q9Y6I3 with tags, fused parts or gaps C96A): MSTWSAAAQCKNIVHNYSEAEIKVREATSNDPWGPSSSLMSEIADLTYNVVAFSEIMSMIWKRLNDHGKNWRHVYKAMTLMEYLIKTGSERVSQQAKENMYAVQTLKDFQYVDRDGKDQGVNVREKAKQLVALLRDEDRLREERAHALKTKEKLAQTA

[2] = target: T2, DAN-eENTH: epsin 1 ENTH domain variant M10C/C96A/S4W, SEQ ID NO: 2, labeled with DAN at C10 (Homo sapiens, UniProt Q9Y6I3, C96A/M10C/S4W); test: Spectrofluorometry of DAN-eENTH binding to PtdIns(4,5)P2-containing LUVs
T2 construct: The Epsin1 ENTH domain (1-158 amino acids) was subcloned; GST (C, cleaved yes); made in house; host or cells: E. coli BL21 RIL codon plus
T2 sequence (Q9Y6I3 1-158 S4W/M10C/C96A): T1 sequence (Q9Y6I3 with tags, fused parts or gaps C96A) with A6L, A7R, A8R
Experimental: To check the feasibility of PtdIns(4,5)P2 quantification using our sensor, the change in fluorescence emission of DAN-eENTH upon membrane binding was measured by spectrofluorometry.
The theoretic curve was then constructed using these parameters.
Hitachi F-4500 spectrofluorometer was used for all cuvette-based fluorescence measurements. DAN-eENTH (typically 500 nM) was added to POPC/POPS/PtdIns(4,5)P2 (80-x:20:x) (x=0-3 mol %) LUV and the emission spectra of DAN were measured with excitation wavelength set at 392 nm. The same measurements were repeated with LUVs made of different phosphoinositides, e.g., POPC/POPS/PtdIns(3,4,5)P3 (77:20:3).

[3] = target: T2, DAN-eENTH: epsin 1 ENTH domain variant M10C/C96A/S4W, SEQ ID NO: 2, labeled with DAN at C10; test: SPR equilibrium binding of DAN-eENTH to phosphoinositide-containing LUVs
From the text: Provided herein is an ENTH domain of epsin1, which is linked to 2-dimethylamino-6-acyl-naphthalene (DAN). The ENTH domain contains 3 mutations, which are substitutions: M10C, C96A, and S4W. See SEQ ID NO:2. This DAN-eENTH (M10C, C96A, S4W) is an exceptional, high-affinity phosphatidylinositol-4,5-bisphosphate (PtdIns(4,5)P2)-binding protein.
The ENTH domain was engineered to introduce a single labeling site (M10C) on the membrane binding surface while removing an endogenous Cys (C96A). We also performed the S4W mutation to suppress its residual affinity for another lipid, phosphatidylinositol-3,4,5-trisphosphate (PtdIns(3,4,5)P3) (PtdIns(4,5)P2/PtdIns(3,4,5)P3=4 for wild type and >10 for the mutant) and to enhance the overall affinity for PtdIns(4,5)P2-containing membranes (ca. 4-fold) (Table 1).
With respect to FIG. 1, an L1 sensor chip was coated with POPC/POPS/PtdIns(4,5)P2 (77:20:3) LUVs. The proteins were incubated with a given concentration of IP3 for 5 minutes before injecting into the SPR instrument. Kinetic SPR measurements were performed in 20 mM Tris-HCL, pH 7.4, containing 0.16 KCl. […] A lower concentration of DAN-eENTH was used than that of PLCδ PH because the former has much higher affinity that the latter.
All mutations (S4W, M10C, and C96A) were performed by polymerase chain reaction mutagenesis and verified by DNA sequencing. eENTH may comprise the following sequence:
E. coli BL21 RIL codon plus (Stratagene) cells were used for protein expression. Cells were grown in Luria broth media containing 100 μg/ml of ampicillin at 37° C. 0.1 mM of Isopropyl β-D-1-thiogalactopyranoside was added to induce over-expression of recombinant proteins when the OD600 reached 0.5-0.8 and cells were grown for additional 6 to 10 hours at 25° C. Cells were harvested by centrifugation and cell pellets were resuspended in 50 mM Tris-HCl buffer (pH 7.4) containing 160 mM KCl, 1 mM phenylmethanesulphonylfluoride, and 5 mM of dithiothreitol (DTT). Cells were lysed by sonication and the lysate was collected by centrifugation at 4° C. The GST-affinity resin (GenScript) for GST-tagged proteins or nickel-nitrilotriacetic acid resin (Qiagen, Valencia, Calif.) for His6-tagged proteins was added into the cell lysate and the mixture was gently shaken for 30 minutes at 4° C. The mixture was applied to a column and the column was washed once with 50 mM Tris-HCl buffer (pH 7.4) containing 160 mM KCl and 5 mM of DTT to reduce thiol group, and washed several times with the same buffer without DTT to remove DTT. For DAN labeling, 100 μg of acrylodan was added to the column at this stage and incubated 16 hours at 4° C. The excess acrylodan was removed by washing the column with the buffer several times. Thrombin (Invitrogen) was added to column to remove the GST tag and the mixture was incubated at 4° C. for 10 hours. The labeled protein was eluted from the column by and the collected fractions were applied to ion exchange column. Purity and the concentration of the recombinant proteins were determined by sodium dodecylsulfate-polyacrylamide gel electrophoresis and bicinchoninic acid assay, respectively. The DAN labeling yield of eENTH, which was calculated as the molar ratio of DAN (determined spectrophotometrically at 391 nm using its extinction coefficient of 20,000 cm^−1 M^−1) to protein, was typically 60-70%.
LUVs were prepared by extrusion using a 100 nm-pore membrane. GUVs were prepared by electroformation. […]

SMILES: CCCCCCCCCCCCCCCC(=O)OC[C@H](COP(=O)(O)O[C@@H]1[C@H](O)[C@H](O)[C@@H](OP(=O)(O)O)[C@H](OP(=O)(O)O)[C@H]1O)OC(=O)CCCCCCCCCCCCCCC [PtdIns(4,5)P2, phosphatidylinositol-4,5-bisphosphate]
- PtdIns(4,5)P2 affinity [1]: devoid of PtdIns(4,5)P2 affinity
- Kd for PtdIns(4,5)P2 (F450/F520 ratiometric analysis) ([2]; F450/F520 versus [PtdIns(4,5)P2], LUVs): 1.2+/−0.2 mol %
- Kd for PtdIns(4,5)P2 (F450 analysis) ([2]; F450 versus [PtdIns(4,5)P2], 500 nM DAN-eENTH, LUVs): 1.2+/−0.2 mol %
- pKd ([2]; F450 versus [PtdIns(4,5)P2], assumes only half of total lipids available to the sensor, read-out: Kd for PtdIns(4,5)P2 (F450 analysis, converted)): 7.22
- pKd ([3]; SPR, POPC/POPS/PtdIns(4,5)P2 (77:20:3) LUVs, 20 mM Tris-HCl pH 7.4, 0.16 M KCl, read-out: Kd for PtdIns(4,5)P2): 8.40
- affinity for PtdIns(4,5)P2-containing vesicles relative to eENTH ([3]; higher than eENTH): about 3 fold
- affinity for PtdIns(4,5)P2-containing vesicles relative to wild type ([3]; higher than the wild type): 12 fold
